Patent US11304944B2, “MetAP2 inhibitors and methods of treating obesity” (SynDevRx, Inc., priority 2013, dated 2022)
Structures can show the parent of a compound that is named as a salt.

Legend:
[1] = tested on: DIO Levin rats; experiment: In vivo testing DIO Levin rats: weight changes, food consumption, insulin, leptin levels; settings: for Final BW: after 68 days, 60% fat diet
Description: CKD-732 as referred to herein is the hemitartrate salt of the following structure:
Test articles were administered subcutaneously on an every 4 day (q4d) schedule in a diet-induced obesity (DIO) Levin-DS rat model. […] A dietary intervention (Standard Chow, Labdiet 5001; 3.4 kcal/g) was included to compare to the drug interventions. Upon arrival at three weeks of age, the male rats received ad libitum pellets of Harlan Diet TD.06414, 60% of calories from fat, 21% of calories from carbohydrate; 5.1 kcal/g. Prior to dosing the rats were randomized into groups of three animals with an average body weight of 595 gm. […] Compound 1 in the form of the hemitartrate and CKD-732 in the form of the hemitartrate were dissolved in ethanol prior to dilution with vehicle. All doses were administered at a volume of 5.0 ml/kg. […] On day 1, first dose, the rats were 14 weeks of age. Also on day 1, Group 2 was switched from the high fat diet to a standard chow diet; the remaining groups were maintained on a high fat diet for the duration of the study.
(§1) Animals were weighed every other day. Food consumption was measured weekly. On an approximately weekly basis throughout the study, blood samples were taken for assessment of serum chemistries including glucose and insulin. On Day 48 all rats underwent a 4 hour fasted Oral Glucose Tolerance Test (OGTT). Animals were dosed orally (per os, PO) at 8 mL/kg 25% glucose (2 g/kg). On day 68, gross pathology was performed to determine body composition.

[2] = tested on: DIO Levin rats; experiment: Oral Glucose Tolerance Test (OGTT) Day 48 and HOMA-ir in DIO Levin rats; type: in vivo; settings: for Blood Glucose, Time 15 / Blood Glucose, Time 30 / Blood Glucose, Time 60 / Blood Glucose, Time 90 / Blood Glucose, Time 120: OGTT; for BW: at OGTT;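 for Blood Glucose pre-OGTT: blood glucose in mg/dL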;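 for Blood Glucose, Time 120: blood glucose in mg/dL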;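 for Blood Glucose, Time 15: blood glucose in mg/dL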;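 for Blood Glucose, Time 30: blood glucose in mg/dL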;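 for Blood Glucose, Time 60: blood glucose in mg/dL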;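 for Blood Glucose, Time 90: blood glucose in mg/dL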
Description: as §1

[3] = tested on: DIO C57Bl/6 mice; experiment: In vivo testing DIO mice schedule-dose response: weight, food intake, ipGTT, HOMA-ir data
Description: Animals were dosed according to the schedule in Table 17 below.
Compound dosing occurred between 9 and 10 am on the day of dosing. Groups 6 and 7 received a total of 17 doses. The q4d groups (1, 2, 3, 4, 8, 9) received a total of 9 doses. The q8d group (5) received a total of 5 drug doses. Body weight and food intake were measured every other day. Blood glucose was measured on Day −7, Day 0, Day 7, Day 14, Day 21 and Day 28 at 9:00 am in fed state (BG measured before dose on dosing days). BG was measured by glucometer. An intraperitoneal glucose tolerance test (ipGTT, 6 h fasting) was performed.
The study was terminated on day 34. Liver and epididymal white adipose tissues (eWAT) were harvested, weighed and stored at −80° C. Sera was collected to determine: AST, ALT, ALP, CK, BUN, creatinine, calcium, potassium, sodium, chloride, total protein, albumin, total bilirubin, glucose, triglyceride and cholesterol. Insulin samples were measured using a commercial kit.

[4] = every fourth day schedule; due to confusion and insomnia; cited from earlier work
[5] = Plasma pharmacokinetics after single IV bolus in Sprague Dawley rats (LC/MS/MS, analyte Compound 1); type: in vivo; settings: male, rat, Compound 1 30 mg/kg single IV bolus
Description: Blood samples were collected via saphenous vein puncture at 0, 0.25, 0.5, 1, 2, 4, 8, 24 and 48 hours.

## COC1C(OC(=O)/C=C/c2ccc(OCCN(C)C)cc2)CC[C@]2(CO2)C1[C@@]1(C)O[C@@H]1CC=C(C)C (some centres unmarked) [CKD-732, reference compound]
[1]; 1.15 mg/kg Q4D
  lower body weight than vehicle: 3.2%
[1]; 1.15 mg/kg q4d sc
  Avg. Insulin Day 7: 2.08 ng/mL
  Avg. Insulin Day 15: 1.91 ng/mL
  Avg. Insulin Day 23: 1.60 ng/mL
  Avg. Insulin Day 48: 1.56 ng/mL
  Avg. Insulin Pre-dosing: 2.58 ng/mL
  Group Average Food Consumption Day 1-8: 131.8 g
  Group Average Food Consumption Day 9-15: 110.5 g
  Group Average Food Consumption Day 16-23: 108.7 g
  Group Average Food Consumption Day 24-30: 133.9 g
  Group Average Food Consumption Day 31-36: 153.9 g
  Group Average Food Consumption Day 37-43: 148.7 g
  Group Average Food Consumption Day 44-50: 112.3 g
  Group Average Food Consumption Day 51-57: 135.0 g
  Group Average Food Consumption Day 58-63: 125.5 g
  Group Average Food Consumption Day 63-68: 61.9 g
  Leptin Levels Day 29: 4.30
  Leptin Levels Pre-dose: 4.43
  Leptin Levels, Day 29, % Change from Baseline: −3.0%
  Final BW: 714.0 g
[2]; 1.15 mg/kg q4d sc
  Blood Glucose pre-OGTT: 123 mg/dL
  HOMA-ir (Insulin Sensitivity) 15 min: 49.0
  HOMA-ir (Insulin Sensitivity) 30 min: 35.9
  HOMA-ir (Insulin Sensitivity) Pre-dose: 13.6
  Blood Glucose, Time 15: 174 mg/dL
  Blood Glucose, Time 30: 171 mg/dL
  Blood Glucose, Time 60: 158 mg/dL
  Blood Glucose, Time 90: 153 mg/dL
  Blood Glucose, Time 120: 144 mg/dL
  BW: 686 g
[3]; 1 mg/kg Q2D
  Glucose, ipGTT 0 min: 161.3 mg/dL
  Glucose, ipGTT 15 min: 469.2 mg/dL
  Insulin, ipGTT 0 min: 54.8 uU/ml
  Insulin, ipGTT 15 min: 89.3 uU/ml
[3]; 2 mg/kg q4d
  Glucose, ipGTT 0 min: 182.6 mg/dL
  Glucose, ipGTT 15 min: 498.6 mg/dL
  Insulin, ipGTT 0 min: 99.8 uU/ml
  Insulin, ipGTT 15 min: 118.3 uU/ml
[3]; Q2D (QOD) schedule versus Q4D, FIG. 20
  response (weight loss) by schedule: better response than the same average daily dose administered on a Q4D schedule
[4]
  MTD: 15 mg/m2/day

## COC1C(OC(=O)N[C@H]2CC[C@H](N)CC2)CC[C@]2(CO2)C1[C@@]1(C)O[C@@H]1CC=C(C)C (stereo partly drawn) (as salt: tartrate) [Compound 1, Fumagill-6-yl [trans-(4-aminocyclohexyl)]carbamate]
other
  melting point: 180 to 185 °C

## COC1C(OC(=O)N[C@H]2CC[C@H](N)CC2)CC[C@]2(CO2)C1[C@@]1(C)O[C@@H]1CC=C(C)C (stereo partly drawn) [Compound 1, Fumagill-6-yl [trans-(4-aminocyclohexyl)]carbamate]
[5]
  Cmax: ~15 µM
  half-life: 10 to 15 min
[1]; 1 mg/kg Q4D
  lower body weight than vehicle: 3.9%
[1]; 1 mg/kg q4d sc
  Avg. Insulin Day 7: 1.83 ng/mL
  Avg. Insulin Day 15: 1.39 ng/mL
  Avg. Insulin Day 23: 1.20 ng/mL
  Avg. Insulin Day 48: 1.75 ng/mL
  Avg. Insulin Pre-dosing: 1.92 ng/mL
  Group Average Food Consumption Day 1-8: 128.6 g
  Group Average Food Consumption Day 9-15: 109.3 g
  Group Average Food Consumption Day 16-23: 121.1 g
  Group Average Food Consumption Day 24-30: 145.9 g
  Group Average Food Consumption Day 31-36: 144.6 g
  Group Average Food Consumption Day 37-43: 141.7 g
  Group Average Food Consumption Day 44-50: 122.4 g
  Group Average Food Consumption Day 51-57: 147.7 g
  Group Average Food Consumption Day 58-63: 140.7 g
  Group Average Food Consumption Day 63-68: 55.1 g
  Leptin Levels Day 29: 2.47
  Leptin Levels Pre-dose: 2.50
  Leptin Levels, Day 29, % Change from Baseline: −1.3%
[1]; 1.0 mg/kg q4d sc
  Final BW: 717.3 g
[1]; 3 mg/kg Q4D, end of the study
  lower body weight than the vehicle control: 8.9%
[1]; 3 mg/kg q4d sc
  Avg. Insulin Day 7: 1.35 ng/mL
  Avg. Insulin Day 15: 1.68 ng/mL
  Avg. Insulin Day 23: 1.27 ng/mL
  Avg. Insulin Day 48: 1.40 ng/mL
  Avg. Insulin Pre-dosing: 2.10 ng/mL
  Group Average Food Consumption Day 1-8: 123.6 g
  Group Average Food Consumption Day 9-15: 98.9 g
  Group Average Food Consumption Day 16-23: 110.1 g
  Group Average Food Consumption Day 24-30: 149.3 g
  Group Average Food Consumption Day 31-36: 138.8 g
  Group Average Food Consumption Day 37-43: 130.9 g
  Group Average Food Consumption Day 44-50: 94.7 g
  Group Average Food Consumption Day 51-57: 116.2 g
  Group Average Food Consumption Day 58-63: 124.9 g
  Group Average Food Consumption Day 63-68: 49.8 g
  Leptin Levels Day 29: 3.60
  Leptin Levels Pre-dose: 3.23
  Leptin Levels, Day 29, % Change from Baseline: 11.33%
[1]; 3.0 mg/kg q4d sc
  Final BW: 684.0 g
[1]; serum leptin day 29
  reduction in leptin levels: did not result in significant reductions in leptin levels
[2]; 1 mg/kg q4d sc
  Blood Glucose pre-OGTT: 124 mg/dL
  HOMA-ir (Insulin Sensitivity) 15 min: 42.7
  HOMA-ir (Insulin Sensitivity) 30 min: 21.1
  HOMA-ir (Insulin Sensitivity) Pre-dose: 15.4
  Blood Glucose, Time 15: 156 mg/dL
  Blood Glucose, Time 30: 142 mg/dL
  Blood Glucose, Time 60: 152 mg/dL
  Blood Glucose, Time 90: 151 mg/dL
  Blood Glucose, Time 120: 142 mg/dL
  BW: 686 g
[2]; 3 mg/kg q4d sc
  Blood Glucose pre-OGTT: 123 mg/dL
  HOMA-ir (Insulin Sensitivity) 15 min: 29.2
  HOMA-ir (Insulin Sensitivity) 30 min: 9.5
  HOMA-ir (Insulin Sensitivity) Pre-dose: 12.2
  Blood Glucose, Time 15: 175 mg/dL
  Blood Glucose, Time 30: 171 mg/dL
  Blood Glucose, Time 60: 149 mg/dL
  Blood Glucose, Time 90: 147 mg/dL
  Blood Glucose, Time 120: 129 mg/dL
  BW: 668 g
